In brackets after ≈: the same amount, converted by molar mass.
Test system: not listed separately
Assay: MTT cytotoxicity assay
Type: cell-based
Conditions: LO2 normal liver cells, human normal liver cells (L02), mean of three experiments

Row | Compound | IC50 [µg/mL]
1 | N#Cc1c(-c2c[nH]c3ccccc23)cc(-c2ccc(OC(F)(F)F)cc2)nc1N [Compound 40] | > 70

Test system: Mycobacterium tuberculosis H37RV
Assay: In vitro antitubercular activity by MABA (Alamar Blue)
Type: cell-based
Conditions: Mycobacterium tuberculosis H37RV, MABA, Middlebrook 7H9 broth, 37°C five days

Row | Compound | H37RV MIC
2 | N#Cc1c(-c2c[nH]c3ccccc23)cc(-c2ccc(OC(F)(F)F)cc2)nc1N [Compound 40] | ~ 8 µM

Same assay, conditions: Mycobacterium tuberculosis H37RV, MABA, Middlebrook 7H9 broth, 37°C five days; read-out: H37RV MIC

Row | Compound | MIC [µM]
3 | NC(=O)c1cnccn1 [Pyrazinamide, reference compound] | 25 (≈ 3.08 µg/mL)
4 | N#Cc1c(-c2ccc[nH]2)cc(-c2ccc(C(F)(F)F)cc2)nc1N [Compound 30] | 17 (≈ 5.58 µg/mL)
5 | N#Cc1c(-c2c[nH]c3ccccc23)cc(-c2ccc(OC(F)(F)F)cc2)nc1N [Compound 40] | 8 (≈ 3.15 µg/mL)
6 | N#CC1=C(N)OC(c2ccc(OC(F)(F)F)cc2)=CC1c1cccc(Cl)c1Cl (centres unmarked) [Compound 51] | 16 (≈ 6.84 µg/mL)
7 | N#Cc1c(-c2cccs2)cc(-c2ccc(OC(F)(F)F)cc2)nc1N [Compound 36] | 31 (≈ 11.2 µg/mL)
8 | [H]/N=C(/N)N[C@H]1[C@H](O)[C@@H](O)[C@H](O[C@@H]2O[C@@H](C)[C@](O)(C=O)[C@H]2O[C@@H]2O[C@@H](CO)[C@H](O)[C@@H](O)[C@@H]2NC)[C@@H](N/C(N)=N\[H])[C@@H]1O [Streptomycin, reference compound] | 11 (≈ 6.4 µg/mL)
9 | O=C(O)c1cn(C2CC2)c2cc(N3CCNCC3)c(F)cc2c1=O [Ciprofloxacin, reference compound] | 9 (≈ 2.98 µg/mL)
10 | N#Cc1c(-c2c[nH]c3ccccc23)cc(-c2ccc(OC(F)(F)F)cc2)nc1N [Compound 33] | 30 (≈ 11.8 µg/mL)
11 | N#Cc1c(-c2cccs2)cc(-c2ccc(C(F)(F)F)cc2)nc1N [Compound 26] | 33 (≈ 11.4 µg/mL)
12 | N#Cc1c(-c2cccs2)cc(-c2ccc(C(F)(F)F)cc2)nc1N [Compound 27] | 18 (≈ 6.22 µg/mL)
13 | N#CC1=C(N)OC(c2ccc(OC(F)(F)F)cc2)=CC1c1ccc[nH]1 (centres unmarked) [Compound 60] | 16 (≈ 5.56 µg/mL)
14 | N#CC1=C(N)OC(c2ccc(C(F)(F)F)cc2)=CC1c1ccccc1Cl (centres unmarked) [Compound 41] | 17 (≈ 6.41 µg/mL)
15 | N#CC1=C(N)OC(c2ccc(C(F)(F)F)cc2)=CC1c1ccc[nH]1 (centres unmarked) [Compound 50] | 16 (≈ 5.3 µg/mL)

Same assay, conditions: Mycobacterium tuberculosis, H37RV, 120 h, Mycobacterium tuberculosis H37RV, MABA, Middlebrook 7H9 broth, 37°C five days; read-out: H37RV MIC

Row | Compound | MIC [µM]
16 | N#Cc1c(-c2ccc(Cl)cc2)cc(-c2ccc(C(F)(F)F)cc2)nc1N [Compound 28] | 38 (≈ 14.2 µg/mL)
17 | N#CC1=C(N)OC(c2ccc(OC(F)(F)F)cc2)=CC1c1ccco1 (centres unmarked) [Compound 57] | 34 (≈ 11.8 µg/mL)
18 | O=C(/C=C/c1c[nH]c2ccccc12)c1ccc(OC(F)(F)F)cc1 [Compound 13] | 138 (≈ 45.7 µg/mL)
19 | O=C(/C=C/c1cccc([N+](=O)[O-])c1)c1ccc(OC(F)(F)F)cc1 [Compound 15] | 148 (≈ 49.9 µg/mL)
20 | N#CC1=C(N)OC(c2ccc(OC(F)(F)F)cc2)=CC1c1cccs1 (centres unmarked) [Compound 56] | 31 (≈ 11.3 µg/mL)
21 | O=C(/C=C/c1ccccc1[N+](=O)[O-])c1ccc(OC(F)(F)F)cc1 [Compound 14] | 148 (≈ 49.9 µg/mL)
22 | N#Cc1c(-c2ccc([N+](=O)[O-])cc2)cc(-c2ccc(C(F)(F)F)cc2)nc1N [Compound 29] | 152 (≈ 58.4 µg/mL)
23 | O=C(/C=C/c1ccccc1[N+](=O)[O-])c1ccc(C(F)(F)F)cc1 [Compound 4] | 156 (≈ 50.1 µg/mL)
24 | N#CC1=C(N)OC(c2ccc(C(F)(F)F)cc2)=CC1c1c[nH]c2ccccc12 (centres unmarked) [Compound 43] | 30 (≈ 11.4 µg/mL)
25 | N#CC1=C(N)OC(c2ccc(C(F)(F)F)cc2)=CC1c1ccccc1[N+](=O)[O-] (centres unmarked) [Compound 44] | 32 (≈ 12.4 µg/mL)
26 | N#CC1=C(N)OC(c2ccc(C(F)(F)F)cc2)=CC1c1cccc([N+](=O)[O-])c1 (centres unmarked) [Compound 45] | 129 (≈ 50 µg/mL)
27 | N#CC1=C(N)OC(c2ccc(OC(F)(F)F)cc2)=CC1c1ccc([N+](=O)[O-])cc1 (centres unmarked) [Compound 59] | 144 (≈ 58.1 µg/mL)
28 | N#Cc1c(-c2c[nH]c3ccccc23)cc(-c2ccc(C(F)(F)F)cc2)nc1N [Compound 23] | 31 (≈ 11.7 µg/mL)
29 | N#CC1=C(N)OC(c2ccc(C(F)(F)F)cc2)=CC1c1cccs1 (centres unmarked) [Compound 46] | 32 (≈ 11.1 µg/mL)
30 | NC(=O)c1cnccn1 [Pyrazinamide, reference compound] | ~25 (≈ 3.08 µg/mL)
31 | O=C(/C=C/c1ccc(Cl)cc1)c1ccc(C(F)(F)F)cc1 [Compound 8] | 188 (≈ 58.4 µg/mL)
32 | N#Cc1c(-c2cccc(Cl)c2)cc(-c2ccc(OC(F)(F)F)cc2)nc1N [Compound 32] | 128 (≈ 49.9 µg/mL)
33 | O=C(/C=C/c1ccc[nH]1)c1ccc(OC(F)(F)F)cc1 [Compound 20] | 38 (≈ 10.7 µg/mL)
34 | O=C(/C=C/c1cccc(Cl)c1)c1ccc(OC(F)(F)F)cc1 [Compound 12] | 153 (≈ 50 µg/mL)

Row | Compound | MIC [µM]
35 | N#CC1=C(N)OC(c2ccc(OC(F)(F)F)cc2)=CC1c1ccccc1[N+](=O)[O-] (centres unmarked) [Compound 54] | 31 (≈ 12.5 µg/mL)
36 | N#Cc1c(-c2cccc(Cl)c2)cc(-c2ccc(C(F)(F)F)cc2)nc1N [Compound 22] | 134 (≈ 50.1 µg/mL)
37 | O=C(/C=C/c1cccc([N+](=O)[O-])c1)c1ccc(C(F)(F)F)cc1 [Compound 5] | 155 (≈ 49.8 µg/mL)
38 | N#Cc1c(-c2cccc([N+](=O)[O-])c2)cc(-c2ccc(OC(F)(F)F)cc2)nc1N [Compound 35] | 125 (≈ 50 µg/mL)
39 | N#Cc1c(-c2ccc[nH]2)cc(-c2ccc(C(F)(F)F)cc2)nc1N [Compound 30] | 16 to 18 (≈ 5.25 to 5.91 µg/mL)
40 | N#Cc1c(-c2cccs2)cc(-c2ccc(OC(F)(F)F)cc2)nc1N [Compound 37] | 17 (≈ 6.14 µg/mL)
41 | N#Cc1c(-c2cccc([N+](=O)[O-])c2)cc(-c2ccc(C(F)(F)F)cc2)nc1N [Compound 25] | 130 (≈ 50 µg/mL)
42 | O=C(/C=C/c1cccs1)c1ccc(OC(F)(F)F)cc1 [Compound 16] | 148 (≈ 44.1 µg/mL)
43 | N#CC1=C(N)OC(c2ccc(OC(F)(F)F)cc2)=CC1c1cccc(Cl)c1Cl (centres unmarked) [Compound 51] | 16 to 18 (≈ 6.84 to 7.69 µg/mL)
44 | N#CC1=C(N)OC(c2ccc(OC(F)(F)F)cc2)=CC1c1c[nH]c2ccccc12 (centres unmarked) [Compound 53] | 29 (≈ 11.5 µg/mL)
45 | O=C(/C=C/c1ccc(Cl)cc1)c1ccc(OC(F)(F)F)cc1 [Compound 18] | 177 (≈ 57.8 µg/mL)
46 | N#Cc1c(-c2ccc([N+](=O)[O-])cc2)cc(-c2ccc(OC(F)(F)F)cc2)nc1N [Compound 39] | 145 (≈ 58 µg/mL)
47 | [H]/N=C(/N)N[C@H]1[C@H](O)[C@@H](O)[C@H](O[C@@H]2O[C@@H](C)[C@](O)(C=O)[C@H]2O[C@@H]2O[C@@H](CO)[C@H](O)[C@@H](O)[C@@H]2NC)[C@@H](N/C(N)=N\[H])[C@@H]1O [Streptomycin, reference compound] | ~11 (≈ 6.4 µg/mL)
48 | O=C(/C=C/c1ccc([N+](=O)[O-])cc1)c1ccc(OC(F)(F)F)cc1 [Compound 19] | 178 (≈ 60 µg/mL)
49 | O=C(/C=C/c1c[nH]c2ccccc12)c1ccc(C(F)(F)F)cc1 [Compound 3] | 145 (≈ 45.7 µg/mL)
50 | O=C(/C=C/c1ccccc1Cl)c1ccc(C(F)(F)F)cc1 [Compound 1] | 40 (≈ 12.4 µg/mL)
51 | N#Cc1c(-c2cccc(Cl)c2Cl)cc(-c2ccc(OC(F)(F)F)cc2)nc1N [Compound 31] | 32 (≈ 13.6 µg/mL)
52 | O=C(/C=C/c1cccc(Cl)c1Cl)c1ccc(OC(F)(F)F)cc1 [Compound 11] | 153 (≈ 55.3 µg/mL)
53 | O=C(/C=C/c1ccco1)c1ccc(OC(F)(F)F)cc1 [Compound 17] | 168 (≈ 47.4 µg/mL)

Row | Compound | MIC [µM]
54 | O=C(/C=C/c1cccc(Cl)c1)c1ccc(C(F)(F)F)cc1 [Compound 2] | 161 (≈ 50 µg/mL)
55 | O=C(O)c1cn(C2CC2)c2cc(N3CCNCC3)c(F)cc2c1=O [Ciprofloxacin, reference compound] | ~9 (≈ 2.98 µg/mL)
56 | N#CC1=C(N)OC(c2ccc(C(F)(F)F)cc2)=CC1c1ccco1 (centres unmarked) [Compound 47] | 36 (≈ 12 µg/mL)
57 | O=C(/C=C/c1ccc[nH]1)c1ccc(C(F)(F)F)cc1 [Compound 10] | 40 (≈ 10.6 µg/mL)
58 | O=C(/C=C/c1ccc([N+](=O)[O-])cc1)c1ccc(C(F)(F)F)cc1 [Compound 9] | 189 (≈ 60.7 µg/mL)
59 | N#CC1=C(N)OC(c2ccc(OC(F)(F)F)cc2)=CC1c1ccc(Cl)cc1 (centres unmarked) [Compound 58] | 36 (≈ 14.1 µg/mL)
60 | N#CC1=C(N)OC(c2ccc(OC(F)(F)F)cc2)=CC1c1cccc([N+](=O)[O-])c1 (centres unmarked) [Compound 55] | 124 (≈ 50 µg/mL)
61 | N#CC1=C(N)OC(c2ccc(C(F)(F)F)cc2)=CC1c1ccc(Cl)cc1 (centres unmarked) [Compound 48] | 38 (≈ 14.3 µg/mL)
62 | N#Cc1c(-c2ccccc2[N+](=O)[O-])cc(-c2ccc(C(F)(F)F)cc2)nc1N [Compound 24] | 33 (≈ 12.7 µg/mL)
63 | N#CC1=C(N)OC(c2ccc(OC(F)(F)F)cc2)=CC1c1cccc(Cl)c1 (centres unmarked) [Compound 52] | 127 (≈ 49.9 µg/mL)
64 | O=C(/C=C/c1cccs1)c1ccc(C(F)(F)F)cc1 [Compound 6] | 156 (≈ 44 µg/mL)
65 | N#Cc1c(-c2ccc(Cl)cc2)cc(-c2ccc(OC(F)(F)F)cc2)nc1N [Compound 38] | 36 (≈ 14 µg/mL)
66 | N#CC1=C(N)OC(c2ccc(OC(F)(F)F)cc2)=CC1c1ccc[nH]1 (centres unmarked) [Compound 60] | 16 to 18 (≈ 5.56 to 6.25 µg/mL)
67 | N#CC1=C(N)OC(c2ccc(C(F)(F)F)cc2)=CC1c1ccccc1Cl (centres unmarked) [Compound 41] | 16 to 18 (≈ 6.03 to 6.78 µg/mL)
68 | N#CC1=C(N)OC(c2ccc(C(F)(F)F)cc2)=CC1c1cccc(Cl)c1 (centres unmarked) [Compound 42] | 133 (≈ 50.1 µg/mL)
69 | N#Cc1c(-c2ccccc2[N+](=O)[O-])cc(-c2ccc(OC(F)(F)F)cc2)nc1N [Compound 34] | 31 (≈ 12.4 µg/mL)
70 | N#Cc1c(-c2cccc(Cl)c2Cl)cc(-c2ccc(C(F)(F)F)cc2)nc1N [Compound 21] | 33 (≈ 13.5 µg/mL)
71 | N#CC1=C(N)OC(c2ccc(C(F)(F)F)cc2)=CC1c1ccc[nH]1 (centres unmarked) [Compound 50] | 16 to 18 (≈ 5.3 to 5.96 µg/mL)
72 | N#CC1=C(N)OC(c2ccc(C(F)(F)F)cc2)=CC1c1ccc([N+](=O)[O-])cc1 (centres unmarked) [Compound 49] | 151 (≈ 58.5 µg/mL)

Same assay, conditions: Mycobacterium tuberculosis, H37RV, 120 h, read-out: H37RV MIC

Row | Compound | MIC [µM]
73 | O=C(/C=C/c1ccco1)c1ccc(C(F)(F)F)cc1 [Compound 7] | 177 (≈ 47.1 µg/mL)

Same assay, conditions: ratio of MIC, H37RV

Row | Compound | Potency relative to pyrazinamide [fold]
74 | N#Cc1c(-c2c[nH]c3ccccc23)cc(-c2ccc(OC(F)(F)F)cc2)nc1N [Compound 40] | 3
